Source: patent US20060167035A1, “Quinoline derivative, its use, production and pharmaceutical agents containing the latter” (priority 2004, published 2006)

The compounds below were run against T1, recombinant EphB4 kinase (Homo sapiens, UniProt P54760) (assay: Test System for EphB4 (HTRF kinase assay)). Conditions: polyGluAlaTyr substrate, 2 μM ATP, HTRF readout, read-out: IC50 of EphB4 kinase inhibition.
T1 construct: purchased ProQinase GmbH, Freiburg, Germany
T1 sequence (P54760 16-987): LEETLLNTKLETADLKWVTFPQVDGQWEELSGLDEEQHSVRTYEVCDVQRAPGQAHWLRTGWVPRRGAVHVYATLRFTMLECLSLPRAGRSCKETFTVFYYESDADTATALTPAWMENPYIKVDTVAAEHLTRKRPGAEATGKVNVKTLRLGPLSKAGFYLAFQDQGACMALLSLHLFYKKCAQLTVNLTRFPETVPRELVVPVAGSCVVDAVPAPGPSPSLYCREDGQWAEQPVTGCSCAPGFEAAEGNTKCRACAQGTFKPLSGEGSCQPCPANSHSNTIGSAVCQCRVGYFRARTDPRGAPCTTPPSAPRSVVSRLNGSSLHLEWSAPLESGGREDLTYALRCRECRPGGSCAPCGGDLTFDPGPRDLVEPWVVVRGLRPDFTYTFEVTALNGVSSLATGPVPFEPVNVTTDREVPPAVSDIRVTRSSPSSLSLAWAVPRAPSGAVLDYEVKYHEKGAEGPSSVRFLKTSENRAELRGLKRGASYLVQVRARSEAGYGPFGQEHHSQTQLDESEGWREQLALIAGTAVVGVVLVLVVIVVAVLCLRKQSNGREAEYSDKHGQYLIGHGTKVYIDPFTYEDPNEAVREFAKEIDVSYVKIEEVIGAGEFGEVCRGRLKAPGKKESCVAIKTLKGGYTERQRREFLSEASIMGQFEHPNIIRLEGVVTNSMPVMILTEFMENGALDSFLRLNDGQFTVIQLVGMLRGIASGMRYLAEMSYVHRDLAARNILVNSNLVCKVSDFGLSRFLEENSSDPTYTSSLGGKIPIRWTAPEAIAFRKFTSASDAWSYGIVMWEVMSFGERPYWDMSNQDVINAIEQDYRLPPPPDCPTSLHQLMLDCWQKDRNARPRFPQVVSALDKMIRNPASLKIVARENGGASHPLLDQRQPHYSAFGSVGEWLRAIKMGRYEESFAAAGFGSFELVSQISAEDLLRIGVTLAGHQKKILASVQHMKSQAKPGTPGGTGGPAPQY
Format: biochemical
Procedure: A mixture that consists of 20 ng/ml of recombinant EphB4 kinase (ProQinase GmbH, Freiburg, Germany), 2.67 μg/ml of polyGluAlaTyr, 2 μM of ATP, 25 mmol of HEPES (pH 7.3), 5 mmol of MgCl2, 1 mmol of MnCl2, 2 mmol of DTT, 0.1 mmol of NaVO4, 1% (v/v) of glycerol, 0.02% NP40, EDTA-free protease inhibitors (Complete Roche Company, 1 tablet in 50 ml) is incubated for 10 minutes at 20° C. Test substances are dissolved in 100% DMSO and introduced in a 0.017× volume before the reaction begins. 60 minutes after 1.7× volume of a solution of 50 mmol of Hepes, pH 7.0, 0.2% BSA, 0.14 μg/ml of PT66-Europium, 3.84 μg/ml of SA-XL665, 75 mmol of EDTA is added, the batch is measured in a Discovery HTRF measuring device of the PerkinElmer Company.

Row | IC50 [µM] | SMILES
1 | 0.27 | Cc1nc2c(ccc3nccc(Nc4cc(O)ccc4C)c32)s1 [Example 2, 4-Methyl-3-(2-methyl-thiazolo[4,5-f]quinolin-9-ylamino)-phenol]

Same assay, conditions: polyGluAlaTyr substrate, 2 μM ATP, HTRF readout, read-out: IC50 of EphB4 kinase inhibition (upper bound)

Row | SMILES | IC50 [µM]
2 | Cc1ccc(O)cc1Nc1ccnc2ccc3sccc3c12 [Example 1, 4-Methyl-3-(thieno[3,2-f]quinolin-9-ylamino)-phenol] | < 25
3 | Cc1nc2c(ccc3nccc(Nc4cc(O)ccc4C)c32)s1 [Example 2, 4-Methyl-3-(2-methyl-thiazolo[4,5-f]quinolin-9-ylamino)-phenol] | < 25
4 | Cc1ccc(O)cc1Nc1ccnc2ccc3ccsc3c12 [Example 3, 4-Methyl-3-(thieno[2,3-f]quinolin-9-ylamino)-phenol] | < 25

More lines, now with the values ahead:

Row | IC50 [µM] | SMILES
5 | < 25 | Cc1ccc(O)cc1Nc1ccnc2ccc3c(c12)CCS3(=O)=O [Example 4, 3-(3,3-Dioxo-2,3-dihydro-1H-3λ^6-thieno[3,2-f]quinolin-9-ylamino)-4-methyl-phenol]
6 | < 25 | O=S1(=O)CCc2c1ccc1nccc(Nc3cccc(O)c3)c21 [Example 5, 3-(3,3-Dioxo-2,3-dihydro-1H-3λ^6-thieno[3,2-f]quinolin-9-ylamino)-phenol]
7 | < 25 | Cc1ccc(Nc2ccnc3ccc4c(c23)CCS4(=O)=O)cc1O [Example 15, 5-(3,3-Dioxo-2,3-dihydro-1H-3λ^6-thieno[3,2-f]quinolin-9-ylamino)-2-methylphenol]
